Measurements published in publication PMC5362808, “Discovery of multi-target receptor tyrosine kinase inhibitors as novel anti-angiogenesis agents” (Scientific Reports, 2017).
Read-outs that look alike come from different tables or passages of the source.

Tests used:
[1] = molecular target: VEGFR-2 (Homo sapiens, UniProt P35968); assay: ADP-Glo kinase inhibition assay, VEGFR-2; type: biochemical; conditions: read-out: VEGFR-2 inhibitory activity (IC50)
Method: (§1) Tyrosine kinase inhibition were tested by luminescent ADP-Glo^TM assay.
(§2) The kinase assay was performed in duplicate in a reaction mixture of final volume of 10 μL. […] The assay plate was incubated at 30 °C for 1 h. After the plate was cooled at room temperature for 5 min, 5 μL of ADP-Glo reagent was added into each well to stop the reaction and consume the remaining […] within 40 min. At the end, 10 μL of kinase detection reagent was added into the well and incubated for 30 min to produce a luminescence signal. […] The assay plate was incubated at 30 °C for 4 h. After the plate was cooled at room temperature for 5 min, 5 μL of ADP-Glo reagent was added into each well to stop the reaction and consume the remaining […] within 1 h. At the end, 10 μL of kinase detection reagent was added into the well and incubated for 30 min to produce a luminescence signal. The luminescence was read by VICTOR-X multi- label plate reader. The signal was correlated with the amount of […] present in the reaction and was […] with the kinase activity.

[2] = molecular target: T1, EphB4 (Homo sapiens, UniProt P54760); assay: ADP-Glo kinase inhibition assay, EphB4; type: biochemical; conditions: read-out: EphB4 inhibitory activity (IC50)
T1 sequence (P54760 16-987): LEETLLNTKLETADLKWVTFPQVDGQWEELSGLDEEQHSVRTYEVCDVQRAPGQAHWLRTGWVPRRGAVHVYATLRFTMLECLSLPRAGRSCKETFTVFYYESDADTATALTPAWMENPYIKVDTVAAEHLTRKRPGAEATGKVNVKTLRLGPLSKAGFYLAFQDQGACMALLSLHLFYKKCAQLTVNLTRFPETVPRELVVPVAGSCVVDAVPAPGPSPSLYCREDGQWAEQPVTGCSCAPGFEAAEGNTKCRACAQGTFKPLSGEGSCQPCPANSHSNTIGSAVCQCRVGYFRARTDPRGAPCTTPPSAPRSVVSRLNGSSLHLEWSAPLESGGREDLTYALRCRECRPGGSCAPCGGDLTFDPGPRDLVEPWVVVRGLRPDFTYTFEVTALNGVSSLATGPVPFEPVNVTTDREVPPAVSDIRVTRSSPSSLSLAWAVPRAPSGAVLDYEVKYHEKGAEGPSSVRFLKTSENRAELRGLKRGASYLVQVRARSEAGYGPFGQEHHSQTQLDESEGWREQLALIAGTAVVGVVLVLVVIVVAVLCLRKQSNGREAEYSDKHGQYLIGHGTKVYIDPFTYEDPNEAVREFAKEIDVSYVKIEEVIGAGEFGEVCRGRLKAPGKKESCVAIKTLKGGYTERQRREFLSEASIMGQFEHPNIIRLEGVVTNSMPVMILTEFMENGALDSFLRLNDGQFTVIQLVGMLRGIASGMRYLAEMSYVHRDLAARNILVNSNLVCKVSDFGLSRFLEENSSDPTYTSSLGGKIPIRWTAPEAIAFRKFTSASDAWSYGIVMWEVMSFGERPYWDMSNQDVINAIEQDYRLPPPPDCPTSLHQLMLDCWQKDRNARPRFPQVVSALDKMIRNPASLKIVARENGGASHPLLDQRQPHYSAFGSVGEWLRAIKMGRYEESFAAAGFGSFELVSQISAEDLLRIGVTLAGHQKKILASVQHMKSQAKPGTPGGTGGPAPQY
Method: as §1, §2

[3] = test system: EA.hy926; assay: MTT anti-proliferative assay against human vascular endothelial cell; type: cell-based; conditions: EA.hy 926, 48 h treatment
Method: Growth inhibitory activities were evaluated against human vascular endothelial cell (EA.hy926)[25]. Thirteen selected title compounds were tested using MTT assay to assess cell proliferation. Exponentially growing cells were harvested and plated in 96-well plates at a concentration of […] cells/well, and then incubated for 24 h at 37 °C. The cells were treated with title compounds respectively at various concentrations for 48 h. Then, […] fresh MTT (5 mg/mL) was added to each well and incubated for 4 h at 37 °C. Supernatant was discarded, and […] DMSO was added to each well. Absorbance values were determined by a microplate reader (Bio-Rad Instruments) at 490 nm. The IC50 values were calculated according to inhibition ratios.

[4] = molecular target: TIE-2 (Homo sapiens, UniProt Q02763); assay: ADP-Glo kinase inhibition assay, TIE-2; type: biochemical
Method: as §1, §2

[5] = molecular target: B-Raf (Homo sapiens, UniProt P15056); assay: Kinase selectivity assay, B-Raf; type: biochemical; conditions: Table 3 selectivity profile
[6] = molecular target: FGFR-1 (Homo sapiens, UniProt P11362); assay: Kinase selectivity assay, FGFR-1; type: biochemical; conditions: Table 3 selectivity profile
[7] = molecular target: EGFR (Homo sapiens, UniProt P00533); assay: Kinase selectivity assay, EGFR; type: biochemical; conditions: Table 3 selectivity profile
[8] = molecular target: Src (Homo sapiens, UniProt P12931); assay: Kinase selectivity assay, Src; type: biochemical; conditions: Table 3 selectivity profile
[9] = test system: mouse lung tissue blood vessels; assay: Tissue model for angiogenesis (TMA), lung tissue vessel sprouting; conditions: 15.6 μM; observed on the 5th day
Method: A novel tissue model for angiogenesis that imitated new blood vessels formation in vivo had been established in the previous study.
Figure 8 Anti-angiogenesis potency of compound CDAU-2 in tissue model for angiogenesis (TMA). (A–F) the representative images of lung tissue blood vessels in the TMA on the 5th day; (A) the untreated control group; (B–F) lung tissue vessels in the CDAU-2 treated group; (B) 1.94 μM; (C) 3.87 μM; (D) 7.75 μM; (E) 15.6 μM; (F) 62.5 μM.
In brief, the mouse lung tissue was separated and cut into pieces (0.5–1.0 mm^3)[27]. Then pieces of lung tissue were placed onto 48-well plate coated with polymerized fibrinogen with thrombin. After consolidation, each group was incubated with 200 μL/well 1640 medium containing different concentrations of CDAU-2. Control groups were incubated with 2.5% DMSO or 1640 medium alone.

[10] = Table 2, ATP 50 μM, read-out: TIE-2 inhibitory activity (IC50)
[11] = Table 1, ATP 50 μM, read-out: Tie-2 inhibitory activity (IC50)

Sequence of VEGFR-2 (P35968 20-1356): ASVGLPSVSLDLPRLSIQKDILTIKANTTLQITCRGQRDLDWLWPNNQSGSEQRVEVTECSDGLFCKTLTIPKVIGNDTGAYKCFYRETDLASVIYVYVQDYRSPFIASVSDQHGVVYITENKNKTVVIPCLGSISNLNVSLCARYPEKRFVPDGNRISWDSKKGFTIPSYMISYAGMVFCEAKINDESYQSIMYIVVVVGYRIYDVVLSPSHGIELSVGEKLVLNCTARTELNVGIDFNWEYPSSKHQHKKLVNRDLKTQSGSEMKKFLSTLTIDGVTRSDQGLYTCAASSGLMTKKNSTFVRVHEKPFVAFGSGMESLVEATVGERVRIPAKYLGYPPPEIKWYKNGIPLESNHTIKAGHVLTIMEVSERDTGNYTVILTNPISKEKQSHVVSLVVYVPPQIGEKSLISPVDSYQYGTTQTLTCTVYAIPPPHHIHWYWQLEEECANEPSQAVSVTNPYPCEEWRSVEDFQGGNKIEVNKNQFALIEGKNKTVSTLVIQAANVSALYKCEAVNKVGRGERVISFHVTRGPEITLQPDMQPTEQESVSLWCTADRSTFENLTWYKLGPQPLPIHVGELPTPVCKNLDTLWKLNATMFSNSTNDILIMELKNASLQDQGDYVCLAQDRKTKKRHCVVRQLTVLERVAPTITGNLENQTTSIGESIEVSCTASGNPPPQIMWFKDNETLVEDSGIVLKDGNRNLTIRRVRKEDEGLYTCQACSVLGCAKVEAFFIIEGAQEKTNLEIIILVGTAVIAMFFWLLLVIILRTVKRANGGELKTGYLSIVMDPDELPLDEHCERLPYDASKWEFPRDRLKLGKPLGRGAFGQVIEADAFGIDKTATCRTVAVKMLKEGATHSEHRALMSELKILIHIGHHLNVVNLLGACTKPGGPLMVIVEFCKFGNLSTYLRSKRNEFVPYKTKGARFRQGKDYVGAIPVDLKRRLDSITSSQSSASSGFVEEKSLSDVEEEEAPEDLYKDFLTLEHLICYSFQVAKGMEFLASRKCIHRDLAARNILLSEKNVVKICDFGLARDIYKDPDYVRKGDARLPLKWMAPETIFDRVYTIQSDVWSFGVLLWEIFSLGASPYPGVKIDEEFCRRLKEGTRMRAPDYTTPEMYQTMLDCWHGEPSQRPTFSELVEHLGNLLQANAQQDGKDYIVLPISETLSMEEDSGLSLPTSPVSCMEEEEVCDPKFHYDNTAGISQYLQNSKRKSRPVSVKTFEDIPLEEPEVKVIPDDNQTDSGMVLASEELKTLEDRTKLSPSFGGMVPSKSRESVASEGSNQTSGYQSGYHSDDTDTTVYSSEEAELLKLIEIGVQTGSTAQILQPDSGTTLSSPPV
Sequence of TIE-2 (Q02763 23-1124): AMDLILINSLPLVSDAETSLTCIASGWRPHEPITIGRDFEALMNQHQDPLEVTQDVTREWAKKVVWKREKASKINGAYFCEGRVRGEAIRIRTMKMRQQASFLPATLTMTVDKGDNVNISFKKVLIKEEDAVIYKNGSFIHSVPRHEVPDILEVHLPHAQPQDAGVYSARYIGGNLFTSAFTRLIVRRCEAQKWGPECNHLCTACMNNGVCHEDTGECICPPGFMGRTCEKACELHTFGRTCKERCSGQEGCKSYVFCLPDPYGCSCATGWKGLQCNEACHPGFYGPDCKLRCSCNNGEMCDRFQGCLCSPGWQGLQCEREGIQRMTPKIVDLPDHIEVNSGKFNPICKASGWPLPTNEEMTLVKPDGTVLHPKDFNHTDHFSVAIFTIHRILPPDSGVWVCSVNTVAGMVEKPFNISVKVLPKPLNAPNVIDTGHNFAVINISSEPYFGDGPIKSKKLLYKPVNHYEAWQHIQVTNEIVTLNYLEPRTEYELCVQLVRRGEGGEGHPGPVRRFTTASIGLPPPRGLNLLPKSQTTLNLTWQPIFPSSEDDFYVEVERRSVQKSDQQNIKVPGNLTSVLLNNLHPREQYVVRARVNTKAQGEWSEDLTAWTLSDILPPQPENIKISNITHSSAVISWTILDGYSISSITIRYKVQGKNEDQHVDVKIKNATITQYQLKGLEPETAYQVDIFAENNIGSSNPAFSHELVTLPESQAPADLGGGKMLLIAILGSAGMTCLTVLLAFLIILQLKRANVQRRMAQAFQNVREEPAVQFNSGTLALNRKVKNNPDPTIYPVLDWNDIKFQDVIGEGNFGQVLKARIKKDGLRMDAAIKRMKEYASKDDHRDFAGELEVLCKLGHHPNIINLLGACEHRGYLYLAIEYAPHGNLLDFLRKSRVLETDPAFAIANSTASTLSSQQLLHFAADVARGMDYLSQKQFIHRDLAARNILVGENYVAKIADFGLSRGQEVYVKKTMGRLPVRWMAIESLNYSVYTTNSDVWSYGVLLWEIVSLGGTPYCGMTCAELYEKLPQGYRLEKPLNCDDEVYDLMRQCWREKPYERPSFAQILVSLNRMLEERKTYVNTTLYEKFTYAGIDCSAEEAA
Sequence of FGFR-1 (P11362 22-822, species assumed): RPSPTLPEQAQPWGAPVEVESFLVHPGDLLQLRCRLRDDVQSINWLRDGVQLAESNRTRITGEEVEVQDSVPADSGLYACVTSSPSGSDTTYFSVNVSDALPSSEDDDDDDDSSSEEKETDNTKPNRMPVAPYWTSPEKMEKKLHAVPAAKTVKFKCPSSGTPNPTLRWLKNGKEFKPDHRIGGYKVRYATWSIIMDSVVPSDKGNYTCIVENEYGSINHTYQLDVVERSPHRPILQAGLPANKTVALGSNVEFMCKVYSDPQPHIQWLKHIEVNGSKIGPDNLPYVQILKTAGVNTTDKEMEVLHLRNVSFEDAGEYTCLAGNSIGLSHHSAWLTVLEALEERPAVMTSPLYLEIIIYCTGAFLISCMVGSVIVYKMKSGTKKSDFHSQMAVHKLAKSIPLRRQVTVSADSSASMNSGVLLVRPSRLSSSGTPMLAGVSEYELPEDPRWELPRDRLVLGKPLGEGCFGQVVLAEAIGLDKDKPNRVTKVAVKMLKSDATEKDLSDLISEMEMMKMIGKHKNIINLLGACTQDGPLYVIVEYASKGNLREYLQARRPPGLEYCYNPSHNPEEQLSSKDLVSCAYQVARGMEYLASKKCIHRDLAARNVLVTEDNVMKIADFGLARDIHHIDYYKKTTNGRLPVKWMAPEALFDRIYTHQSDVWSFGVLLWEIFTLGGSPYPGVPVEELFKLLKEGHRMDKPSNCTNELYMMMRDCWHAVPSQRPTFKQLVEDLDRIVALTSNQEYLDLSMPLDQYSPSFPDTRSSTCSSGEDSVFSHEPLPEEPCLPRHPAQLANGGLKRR
Sequence of EGFR (P00533 25-1210, species assumed): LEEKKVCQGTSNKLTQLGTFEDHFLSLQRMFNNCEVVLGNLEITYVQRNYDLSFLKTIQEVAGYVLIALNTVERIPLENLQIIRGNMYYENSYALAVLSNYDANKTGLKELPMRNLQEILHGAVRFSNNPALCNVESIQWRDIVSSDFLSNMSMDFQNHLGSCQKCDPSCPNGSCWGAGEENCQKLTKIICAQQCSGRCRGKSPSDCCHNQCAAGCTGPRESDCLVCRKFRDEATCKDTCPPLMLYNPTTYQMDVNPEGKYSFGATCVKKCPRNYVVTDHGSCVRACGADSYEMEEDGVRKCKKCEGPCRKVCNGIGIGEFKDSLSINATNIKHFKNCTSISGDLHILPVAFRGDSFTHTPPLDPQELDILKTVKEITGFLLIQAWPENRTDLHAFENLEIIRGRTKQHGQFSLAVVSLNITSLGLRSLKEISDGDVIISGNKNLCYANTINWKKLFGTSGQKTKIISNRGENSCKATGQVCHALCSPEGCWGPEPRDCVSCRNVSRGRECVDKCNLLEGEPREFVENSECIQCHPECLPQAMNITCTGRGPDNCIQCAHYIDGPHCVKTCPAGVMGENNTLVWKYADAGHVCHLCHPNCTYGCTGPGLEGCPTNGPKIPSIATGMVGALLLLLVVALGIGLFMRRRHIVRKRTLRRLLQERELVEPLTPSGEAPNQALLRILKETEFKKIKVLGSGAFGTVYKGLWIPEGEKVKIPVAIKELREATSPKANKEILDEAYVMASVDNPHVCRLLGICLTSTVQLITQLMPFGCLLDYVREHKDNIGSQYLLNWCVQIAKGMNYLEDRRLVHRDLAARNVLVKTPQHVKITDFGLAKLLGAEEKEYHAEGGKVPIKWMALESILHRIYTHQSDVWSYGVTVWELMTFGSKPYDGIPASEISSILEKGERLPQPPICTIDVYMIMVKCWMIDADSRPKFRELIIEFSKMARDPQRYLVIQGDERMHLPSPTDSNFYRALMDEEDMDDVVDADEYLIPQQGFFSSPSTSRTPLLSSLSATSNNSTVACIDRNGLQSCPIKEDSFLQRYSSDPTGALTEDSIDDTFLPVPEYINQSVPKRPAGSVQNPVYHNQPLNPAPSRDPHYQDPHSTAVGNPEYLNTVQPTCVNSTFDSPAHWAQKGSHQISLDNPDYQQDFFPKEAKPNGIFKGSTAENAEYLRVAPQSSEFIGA
Sequence of Src (P12931 whole entry, species assumed): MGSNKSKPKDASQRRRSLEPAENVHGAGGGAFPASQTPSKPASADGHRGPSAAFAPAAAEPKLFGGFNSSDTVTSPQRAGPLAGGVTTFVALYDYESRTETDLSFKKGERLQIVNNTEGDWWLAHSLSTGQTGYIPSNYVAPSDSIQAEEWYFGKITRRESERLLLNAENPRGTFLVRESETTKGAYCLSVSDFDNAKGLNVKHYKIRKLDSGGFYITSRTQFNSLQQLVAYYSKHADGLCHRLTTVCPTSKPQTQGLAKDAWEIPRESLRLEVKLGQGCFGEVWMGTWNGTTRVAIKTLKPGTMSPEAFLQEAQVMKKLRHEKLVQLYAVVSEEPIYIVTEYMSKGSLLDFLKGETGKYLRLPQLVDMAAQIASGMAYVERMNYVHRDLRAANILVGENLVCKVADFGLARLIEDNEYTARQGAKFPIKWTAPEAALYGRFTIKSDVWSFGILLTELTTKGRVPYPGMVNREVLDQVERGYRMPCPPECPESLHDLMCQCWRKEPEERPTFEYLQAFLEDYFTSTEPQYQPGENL

SMILES	IC50 ([1]; Table 2, ATP 50 μM) [µM]	IC50 ([2]; Table 2, ATP 50 μM) [µM]	IC50 [4, 10] [µM]	IC50 ([1]; Table 1, ATP 50 μM) [µM]	IC50 [4, 11] [µM]	IC50 ([2]; Table 1, ATP 50 μM) [µM]	IC50 [3] [µM]	other results
O=C(Nc1ccc(-c2cccc(NC(=O)C3CC3)n2)cc1)Nc1ccc(F)cc1F [CDAU-22]	> 1	–	> 1	–	–	–	–	–
O=C(Nc1ccc(-c2cccc(NC(=O)C3CC3)n2)cc1)Nc1ccccc1Cl [CDAU-16]	0.0734	> 1	> 1	–	–	–	–	–
O=C(Nc1ccc(-c2cccc(NC(=O)C3CC3)n2)cc1)Nc1ccc(Cl)cc1Cl [CDAU-20]	0.0427	–	0.0788	–	–	–	45.7	–
CN(C)C(=O)Nc1ccc(-c2ccc(NC(=O)C3CC3)nc2)cc1 [CDAU-11]	–	–	–	> 1	> 1	> 1	–	–
O=C(Nc1ccc(F)cc1)Nc1ccc(-c2cccc(NC(=O)C3CC3)n2)cc1 [CDAU-14]	–	> 1	0.0329	–	–	–	–	–
O=C(Nc1ccc(-c2cccc(NC(=O)C3CC3)n2)cc1)Nc1ccccc1F [CDAU-23]	> 1	–	> 1	–	–	–	–	–
CN(C)CCNC(=O)Nc1ccc(-c2ccc(NC(=O)C3CC3)nc2)cc1 [CDAU-10]	–	–	–	> 1	> 1	> 1	> 1000	–
Cc1ccc(NC(=O)Nc2ccc(-c3cccc(NC(=O)C4CC4)n3)cc2)cc1Cl [CDAU-13]	> 1	> 1	0.271	–	–	–	–	–
CC(C)(C)c1ccc(NC(=O)Nc2ccc(-c3cccc(NC(=O)C4CC4)n3)cc2)cc1 [CDAU-15]	0.028	–	> 1	–	–	–	–	–
Cc1cccc(C)c1NC(=O)Nc1ccc(-c2cccc(NC(=O)C3CC3)n2)cc1 [CDAU-25]	–	> 1	> 1	–	–	–	–	–

Now from value to compound, other results behind:

IC50 ([1]; Table 2, ATP 50 μM) [µM]	IC50 ([2]; Table 2, ATP 50 μM) [µM]	IC50 [4, 10] [µM]	IC50 ([1]; Table 1, ATP 50 μM) [µM]	IC50 [4, 11] [µM]	IC50 ([2]; Table 1, ATP 50 μM) [µM]	SMILES	IC50 [3] [µM]	other results
0.034	> 1	–	–	–	–	O=C(Nc1ccc(OC(F)(F)F)cc1)Nc1ccc(-c2cccc(NC(=O)C3CC3)n2)cc1 [CDAU-19]	31	–
0.00627	0.162	0.0428	–	–	–	O=C(Nc1ccc(-c2cccc(NC(=O)C3CC3)n2)cc1)Nc1cccc(C(F)(F)F)c1 [CDAU-21]	40.5	–
–	–	–	0.00111	0.0072	0.00534	O=C(Nc1ccc(-c2ccc(NC(=O)C3CC3)nc2)cc1)Nc1cccc(C(F)(F)F)c1 [CDAU-1, N-(5-(4-(3-(3-(trifluoromethyl)phenyl)ureido)phenyl)pyridin-2-yl)cyclopropanecarboxamide]	16.1	IC50 [5]: 0.0572 µM; IC50 [6]: 0.155 µM; IC50 [7]: 0.204 µM; IC50 [8]: > 0.5 µM; melting point: 270 to 272 °C
0.063	0.17	–	–	–	–	CC(C)c1cccc(NC(=O)Nc2ccc(-c3cccc(NC(=O)C4CC4)n3)cc2)c1 [CDAU-17]	133	–
–	–	–	> 1	0.858	> 1	CC(C)(C)NC(=O)Nc1ccc(-c2ccc(NC(=O)C3CC3)nc2)cc1 [CDAU-9]	–	–
–	–	–	> 1	> 1	> 1	O=C(Nc1ccc(OC(F)(F)F)cc1)Nc1ccc(-c2ccc(NC(=O)C3CC3)nc2)cc1 [CDAU-8]	–	–
–	–	–	0.0233	0.0329	0.948	O=C(Nc1ccc(-c2ccc(NC(=O)C3CC3)nc2)cc1)Nc1cccc(Cl)c1 [CDAU-6]	880	–
> 1	> 1	> 1	–	–	–	O=C(Nc1ccc(-c2cccc(NC(=O)C3CC3)n2)cc1)Nc1ccc(Cl)c(C(F)(F)F)c1 [CDAU-12, N-(6-(4-(3-(4-chloro-3-(trifluoromethyl)phenyl)ureido)phenyl)pyridin-2-yl)cyclopropanecarboxamide]	–	–
–	–	–	0.00552	0.0613	> 1	O=C(Nc1ccc(-c2ccc(NC(=O)C3CC3)nc2)cc1)Nc1ccc(C(F)(F)F)c(Cl)c1 [CDAU-5]	152	–
–	–	–	0.00101	0.00832	0.00511	O=C(Nc1ccc(-c2ccc(NC(=O)C3CC3)nc2)cc1)Nc1ccc(Cl)c(C(F)(F)F)c1 [CDAU-2]	14.5	IC50 [5]: 0.0346 µM; IC50 [6]: 0.317 µM; IC50 [7]: 0.191 µM; IC50 [8]: > 0.5 µM; Anti-angiogenesis potency: inhibition of vessel outgrowth from lung tissue [9]: inhibited vessels outgrew from the periphery of the lung tissues evidently
> 1	–	> 1	–	–	–	O=C(Nc1ccc(-c2cccc(NC(=O)C3CC3)n2)cc1)Nc1cccc(F)c1 [CDAU-24]	–	–
–	> 1	0.00492	–	–	–	O=C(Nc1ccc(-c2cccc(NC(=O)C3CC3)n2)cc1)Nc1cccc(Cl)c1 [CDAU-18]	22.6	–
–	–	–	> 1	> 1	> 1	O=C(Nc1ccc(-c2ccc(NC(=O)C3CC3)nc2)cc1)Nc1ccccc1F [CDAU-7]	46.2	–
–	–	–	0.00142	> 1	–	O=C(Nc1ccc(-c2ccc(NC(=O)C3CC3)nc2)cc1)Nc1ccc(F)c(F)c1 [CDAU-4]	85	–
–	–	–	0.002	0.0275	> 1	O=C(Nc1ccc(-c2ccc(NC(=O)C3CC3)nc2)cc1)Nc1ccc(C(F)(F)F)c(C(F)(F)F)c1 [CDAU-3]	309	melting point: 241 to 243 °C
